According to patent US20260355196A1, “INHIBITORS AND DEGRADERS OF PIP4K PROTEIN” (Larkspur Biosciences, Inc., priority 2023, published 2026):

Molecular target: T1, PIP4K2C (Homo sapiens, UniProt Q8TBX8)
T1 sequence (Q8TBX8 1-421): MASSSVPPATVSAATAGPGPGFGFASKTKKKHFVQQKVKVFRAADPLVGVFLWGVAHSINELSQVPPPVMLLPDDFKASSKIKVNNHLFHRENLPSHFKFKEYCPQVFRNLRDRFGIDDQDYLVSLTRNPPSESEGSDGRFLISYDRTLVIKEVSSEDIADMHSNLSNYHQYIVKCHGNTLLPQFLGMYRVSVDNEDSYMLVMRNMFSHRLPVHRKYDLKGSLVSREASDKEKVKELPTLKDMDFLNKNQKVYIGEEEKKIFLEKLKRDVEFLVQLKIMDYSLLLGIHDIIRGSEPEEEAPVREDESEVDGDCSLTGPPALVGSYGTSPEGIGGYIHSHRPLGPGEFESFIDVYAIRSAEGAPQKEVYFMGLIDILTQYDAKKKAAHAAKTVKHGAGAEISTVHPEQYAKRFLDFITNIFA
Experiment: HiBiT PIP4K2C degradation assay in MOLT-4 cells (endogenous PIP4K2C C-terminally tagged with HiBiT)
Format: cell-based
Design: untagged in primary human PBMCs and monocyte-derived dendritic cells
Conditions: 6 hours of incubation time, rather than 24 hours; MOLT-4, top concentration 10 micromolar; read-out: HiBIT-degradation MOLT4 PIP4k2C DC50 (6 hours, marked *)
Outline: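 Endogenous PIP4K2C was C-terminally HiBiT-tagged by CRISPR-Cas9 in MOLT-4 cells, which were treated with a 10-point, 3-fold dilution series from 10 micromolar in duplicate for 24 or 6 hours at 37 C. Remaining protein was read by HiBiT lytic luminescence, and DC50 came from a Hill fit.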

| SMILES | DC50 [nM] |
| --- | --- |
| O=C1CCC(Nc2ccc(N3CCN([C@H]4CC[C@H](NC(=O)[C@H]5CC[C@H](Nc6ncc(F)c(-c7cccc(-n8ccccc8=O)c7)n6)CC5)CC4)CC3)c(F)c2)C(=O)N1 (stereo partly drawn) [Compound 381, trans-(1r,4R)—N-((1r,4R)-4-(4-(4-((2,6-dioxopiperidin-3-yl)amino)-2-fluorophenyl)piperazin-1-yl)cyclohexyl)-4-((5-fluoro-4-(3-(2-oxopyridin-1(2H)-yl)phenyl)pyrimidin-2-yl)amino)cyclohexane-1-carboxamide] | < 500 |
| O=C1CCC(Nc2ccc(N3CCN([C@H]4CC[C@H](NC(=O)[C@H]5CC[C@H](Nc6ncc(F)c(-c7cccc(-c8ccc[nH]c8=O)c7)n6)CC5)CC4)CC3)c(F)c2)C(=O)N1 (stereo partly drawn) [Compound 382, trans-N-(trans-4-(4-(4-((2,6-dioxopiperidin-3-yl)amino)-2-fluorophenyl)piperazin-1-yl)cyclohexyl)-4-((5-fluoro-4-(3-(2-oxo-1,2-dihydropyridin-3-yl)phenyl)pyrimidin-2-yl)amino)cyclohexane-1-carboxamide] | < 500 |
| Cn1nc(C2CCC(=O)NC2=O)c2ccc(N3CCN([C@H]4CC[C@H](NC(=O)[C@H]5CC[C@H](Nc6ncc(F)c(-c7cccc(-n8ccccc8=O)c7)n6)CC5)CC4)CC3)cc21 (stereo partly drawn) [Compound 383, trans-N-(trans-4-(4-(3-(2,6-dioxopiperidin-3-yl)-1-methyl-1H-indazol-6-yl)piperazin-1-yl)cyclohexyl)-4-((5-fluoro-4-(3-(2-oxopyridin-1(2H)-yl)phenyl)pyrimidin-2-yl)amino)cyclohexane-1-carboxamide] | < 500 |
| O=C1CCC(Nc2ccc(C3CCN(CC4CCN(C(=O)[C@H]5CC[C@H](Nc6ncc(F)c(-c7cccc(-c8ccc[nH]c8=O)c7)n6)CC5)CC4)CC3)c(F)c2)C(=O)N1 (stereo partly drawn) [Compound 384, trans-3-((3-fluoro-4-(1-((1-(4-((5-fluoro-4-(3-(2-oxo-1,2-dihydropyridin-3-yl)phenyl)pyrimidin-2-yl)amino)cyclohexane-1-carbonyl)piperidin-4-yl)methyl)piperidin-4-yl)phenyl)amino)piperidine-2,6-dione] | < 500 |
| Cn1nc(C2CCC(=O)NC2=O)c2ccc(C3CCN(CC4CCN(C(=O)[C@H]5CC[C@H](Nc6ncc(F)c(-c7cccc(-n8ccccc8=O)c7)n6)CC5)CC4)CC3)cc21 (stereo partly drawn) [Compound 385, trans-3-(6-(1-((1-(4-((5-fluoro-4-(3-(2-oxopyridin-1(2H)-yl)phenyl)pyrimidin-2-yl)amino)cyclohexane-1-carbonyl)piperidin-4-yl)methyl)piperidin-4-yl)-1-methyl-1H-indazol-3-yl)piperidine-2,6-dione] | < 500 |
| O=C1CCC(Nc2ccc(N3CCC(CN4CCN(C(=O)[C@H]5CC[C@H](Nc6ncc(F)c(-c7cccc(-n8ccccc8=O)c7)n6)CC5)CC4)CC3)c(F)c2)C(=O)N1 (stereo partly drawn) [Compound 387, trans-3-((3-fluoro-4-(4-((4-(4-((5-fluoro-4-(3-(2-oxopyridin-1(2H)-yl)phenyl)pyrimidin-2-yl)amino)cyclohexane-1-carbonyl)piperazin-1-yl)methyl)piperidin-1-yl)phenyl)amino)piperidine-2,6-dione] | < 500 |
| Cn1nc(C2CCC(=O)NC2=O)c2ccc(N3CCN([C@H]4CC[C@H](C(=O)N[C@H]5CC[C@H](Nc6ncc(F)c(-c7cccc(-n8ccccc8=O)c7)n6)CC5)CC4)CC3)cc21 (stereo partly drawn) [Compound 388, trans-4-(4-(3-(2,6-dioxopiperidin-3-yl)-1-methyl-1H-indazol-6-yl)piperazin-1-yl)-N-(trans-4-((5-fluoro-4-(3-(2-oxopyridin-1(2H)-yl)phenyl)pyrimidin-2-yl)amino)cyclohexyl)cyclohexane-1-carboxamide] | < 500 |
| Cn1nc(C2CCC(=O)NC2=O)c2ccc(N3CCN([C@H]4CC[C@H](C(=O)N[C@H]5CC[C@H](Nc6ncc(F)c(-c7cccc(-c8ccc[nH]c8=O)c7)n6)CC5)CC4)CC3)cc21 (stereo partly drawn) [Compound 389, trans-(1r,4R)-4-(4-(3-(2,6-dioxopiperidin-3-yl)-1-methyl-1H-indazol-6-yl)piperazin-1-yl)-N-((1r,4R)-4-((5-fluoro-4-(3-(2-oxo-1,2-dihydropyridin-3-yl)phenyl)pyrimidin-2-yl)amino)cyclohexyl)cyclohexane-1-carboxamide] | < 500 |
| O=C1CCC(Nc2ccc(C3CCN(CC4CCN(C(=O)[C@H]5CC[C@H](Nc6ncc(F)c(-c7cccc(-n8ccccc8=O)c7)n6)CC5)CC4)CC3(F)F)c(F)c2)C(=O)N1 (stereo partly drawn) [Compound 390, trans-3-[4-[3,3-difluoro-1-[[1-[4-[[5-fluoro-4-[3-(2-oxo-1-pyridyl)phenyl]pyrimidin-2-yl]amino]cyclohexanecarbonyl]-4-piperidyl]methyl]-4-piperidyl]-3-fluoro-anilino]piperidine-2,6-dione] | < 500 |
| Cn1nc(C2CCC(=O)NC2=O)c2ccc(C3CCN(CC4CCN(C(=O)[C@H]5CC[C@H](Nc6ncc(F)c(-c7cccc(-c8ccc[nH]c8=O)c7)n6)CC5)CC4)CC3)cc21 (stereo partly drawn) [Compound 391, trans-3-(6-(1-((1-(4-((5-fluoro-4-(3-(2-oxo-1,2-dihydropyridin-3-yl)phenyl)pyrimidin-2-yl)amino)cyclohexane-1-carbonyl)piperidin-4-yl)methyl)piperidin-4-yl)-1-methyl-1H-indazol-3-yl)piperidine-2,6-dione] | < 500 |
| O=C1CCC(Nc2ccc(N3CCN(CC4(O)CCN(C(=O)[C@H]5CC[C@H](Nc6ncc(F)c(-c7cccc(-n8ccccc8=O)c7)n6)CC5)CC4)CC3)c(F)c2)C(=O)N1 (stereo partly drawn) [Compound 392, trans-3-((3-fluoro-4-(4-((1-(4-((5-fluoro-4-(3-(2-oxopyridin-1(2H)-yl)phenyl)pyrimidin-2-yl)amino)cyclohexane-1-carbonyl)-4-hydroxypiperidin-4-yl)methyl)piperazin-1-yl)phenyl)amino)piperidine-2,6-dione] | < 500 |
| O=C1CCC(Nc2ccc(N3CCN(CC4CCN(C(=O)[C@H]5CC[C@H](Nc6ncc(F)c(-c7cccc(N8CCCCC8=O)c7)n6)CC5)CC4)CC3)c(F)c2)C(=O)N1 (stereo partly drawn) [Compound 393, trans-3-[3-fluoro-4-[4-[[1-[4-[[5-fluoro-4-[3-(2-oxo-1-piperidyl)phenyl]pyrimidin-2-yl]amino]cyclohexanecarbonyl]-4-piperidyl]methyl]piperazin-1-yl]anilino]piperidine-2,6-dione] | < 500 |
| O=C1CCC(Nc2ccc(C3CCN(CC4CCN(C(=O)[C@H]5CC[C@H](Nc6ncc(F)c(-c7cccc(N8CCCCC8=O)c7)n6)CC5)CC4)CC3)c(F)c2)C(=O)N1 (stereo partly drawn) [Compound 394, trans-3-((3-fluoro-4-(1-((1-(4-((5-fluoro-4-(3-(2-oxopiperidin-1-yl)phenyl)pyrimidin-2-yl)amino)cyclohexane-1-carbonyl)piperidin-4-yl)methyl)piperidin-4-yl)phenyl)amino)piperidine-2,6-dione] | < 500 |
| O=C1CCC(Nc2ccc(N3CCC(N4CCC(CC(=O)N[C@H]5CC[C@H](Nc6ncc(F)c(-c7cccc(-n8ccccc8=O)c7)n6)CC5)CC4)CC3)c(F)c2)C(=O)N1 (stereo partly drawn) [Compound 395, trans-2-(1′-(4-((2,6-dioxopiperidin-3-yl)amino)-2-fluorophenyl)-[1,4′-bipiperidin]-4-yl)-N-((1r,4r)-4-((5-fluoro-4-(3-(2-oxopyridin-1(2H)-yl)phenyl)pyrimidin-2-yl)amino)cyclohexyl)acetamide] | < 500 |

Same assay, conditions: 24 hours incubation, MOLT-4, top concentration 10 micromolar; read-out: HiBIT-degradation MOLT4 PIP4k2C 24 hours DC50

| SMILES | DC50 [nM] |
| --- | --- |
| O=C1CCC(n2c(=O)oc3cc(N4CCC(CN5CCN(CC(=O)N6CCC(Nc7ncc(F)c(-c8cccc(-n9ccccc9=O)c8)n7)CC6)CC5)CC4)ccc32)C(=O)N1 (centres unmarked) [Compound 378, 3-(6-(4-((4-(2-(4-((5-fluoro-4-(3-(2-oxopyridin-1(2H)-yl)phenyl)pyrimidin-2-yl)amino)piperidin-1-yl)-2-oxoethyl)piperazin-1-yl)methyl)piperidin-1-yl)-2-oxobenzo[d]oxazol-3 (2H)-yl)piperidine-2,6-dione] | < 500 |
| O=C1CCC(n2c(=O)oc3cc(C4CCN(CC5CCN(CC(=O)N6CCC(Nc7ncc(F)c(-c8cccc(-c9ccc[nH]c9=O)c8)n7)CC6)CC5)CC4)ccc32)C(=O)N1 (centres unmarked) [Compound 379, 3-[6-[1-[[1-[2-[4-[[5-fluoro-4-[3-(2-oxo-1H-pyridin-3-yl)phenyl]pyrimidin-2-yl]amino]-1-piperidyl]-2-oxo-ethyl]-4-piperidyl]methyl]-4-piperidyl]-2-oxo-1,3-benzoxazol-3-yl]piperidine-2,6-dione] | < 500 |
| O=C1CCC(n2c(=O)oc3cc(N4CCC(CN5CCC(O)(CC(=O)N6CCC(Nc7ncc(F)c(-c8cccc(-n9ccccc9=O)c8)n7)CC6)CC5)CC4)ccc32)C(=O)N1 (centres unmarked) [Compound 380, 3-(6-(4-((4-(2-(4-((5-fluoro-4-(3-(2-oxopyridin-1(2H)-yl)phenyl)pyrimidin-2-yl)amino)piperidin-1-yl)-2-oxoethyl)-4-hydroxypiperidin-1-yl)methyl)piperidin-1-yl)-2-oxobenzo[d]oxazol-3 (2H)-yl)piperidine-2,6-dione] | < 500 |
